According to PubChem BioAssay (NCI):
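Values below derive from 48-hour exposures of cells grown in 96-well plates, with endpoints linearly interpolated between the two concentrations bracketing the appropriate inhibition level. Here, GI50 denotes the concentration required for 50% inhibition of growth. TGI: total growth inhibition.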

What was measured:
Experiment in all cases: NCI tumour cell line growth inhibition, 48 h
[1] = tested on: LOX IMVI melanoma
[2] = tested on: OVCAR-3 ovarian
[3] = tested on: NCI-H522 lung
[4] = tested on: RPMI-8226 leukemia
[5] = tested on: NCI-H460 lung
[6] = tested on: UACC-257 melanoma
[7] = tested on: HOP-62 NSCLC
[8] = tested on: TK-10 renal
[9] = tested on: M19-MEL melanoma
[10] = tested on: LXFL 529 NSCLC
[11] = tested on: KM20L2 colon

COc1ccc(-c2nc(N)c3ncn(C4OC(CO)C(O)C4O)c3n2)cc1 (stereo not drawn)
TGI [1]: > 100 µM | TGI [2]: > 100 µM | TGI [3]: > 100 µM | TGI [4]: > 100 µM | TGI [5]: > 100 µM | TGI [6]: > 100 µM | TGI [7]: > 100 µM | TGI [8]: > 100 µM

O=C1CC2C(=O)C1C(C(=O)O)C2C(=O)O (stereo not drawn)
TGI [1]: > 100 µM | TGI [2]: > 100 µM | TGI [3]: > 100 µM | TGI [4]: > 100 µM | TGI [5]: > 100 µM | TGI [6]: > 100 µM | TGI [7]: > 100 µM | TGI [8]: > 100 µM

N/C(=N\c1nc2ccccc2s1)NC(=O)Nc1ccccc1Cl
GI50 [1]: 0.144 µM | TGI [1]: 5.92 µM | GI50 [2]: 0.0857 µM | TGI [2]: 0.594 µM | GI50 [3]: 0.0439 µM | TGI [3]: 11.9 µM | GI50 [4]: 0.144 µM | TGI [4]: 9.28 µM | GI50 [5]: 0.149 µM | TGI [5]: 10.4 µM | GI50 [6]: 18.6 µM | TGI [6]: > 100 µM | GI50 [7]: 0.19 µM | TGI [7]: 26.7 µM | GI50 [8]: 4.11 µM | TGI [8]: 18.7 µM

O=C1/C(=C/c2ccccc2)CN(CCC(=O)N2C/C(=C\c3ccccc3)C(=O)/C(=C/c3ccccc3)C2)C/C1=C\c1ccccc1
GI50 [1]: 0.628 µM | TGI [1]: 4.32 µM | GI50 [2]: 3.07 µM | TGI [2]: 19.2 µM | GI50 [3]: 14.6 µM | TGI [3]: 62.7 µM | GI50 [4]: 0.046 µM | TGI [4]: 0.5 µM | GI50 [5]: 35.9 µM | TGI [5]: > 100 µM | GI50 [6]: 24.6 µM | TGI [6]: > 100 µM | GI50 [7]: 19.2 µM | TGI [7]: 49.1 µM | GI50 [8]: 18.3 µM | TGI [8]: 43.9 µM

NCC1OC(n2cnc3c(=O)[nH]c(N)nc32)C(O)C1O (stereo not drawn)
TGI [1]: > 100 µM | TGI [2]: > 100 µM | TGI [3]: > 100 µM | TGI [4]: > 63.8 µM | TGI [5]: > 100 µM | TGI [6]: > 100 µM | TGI [7]: > 100 µM | TGI [8]: > 100 µM

NC(=O)c1cc(Cl)ccc1NC(=O)c1ccccc1-c1ccccc1
GI50 [1]: 0.806 µM | TGI [1]: 43 µM | GI50 [2]: 0.328 µM | TGI [2]: 2.59 µM | GI50 [3]: 0.289 µM | TGI [3]: 0.988 µM | GI50 [4]: 2.1 µM | TGI [4]: > 100 µM | GI50 [5]: 0.453 µM | TGI [5]: 28.7 µM | GI50 [6]: 12.8 µM | TGI [6]: 73.2 µM | GI50 [7]: 0.902 µM | TGI [7]: > 100 µM | GI50 [8]: 3.69 µM | TGI [8]: 48 µM

CC([C@H]1CCC2C3CCC4CC5(CC[C@]4(C)C3CC[C@@]21C)c1ccccc1C(=O)N5C)N(C)C (stereo partly drawn)
TGI [1]: 4.21 µM | TGI [2]: > 100 µM | TGI [9]: 78.3 µM | TGI [3]: > 100 µM | TGI [4]: > 100 µM | TGI [5]: > 100 µM | TGI [10]: > 100 µM | TGI [7]: > 100 µM | TGI [8]: > 100 µM

CN(C)CCCN=c1cc2c(=O)n(CCCN(C)C)c(=O)c3c(NCCCN(C)C)cc4c(O)n(CCCN(C)C)c(=O)c1c4c3-2
GI50 [1]: 2.01 µM | TGI [1]: 8.36 µM | GI50 [2]: 2.26 µM | TGI [2]: 7.88 µM | GI50 [3]: 0.781 µM | TGI [3]: 2.76 µM | GI50 [4]: 4.18 µM | TGI [4]: 46.1 µM | GI50 [5]: 0.395 µM | TGI [5]: 1.86 µM | GI50 [6]: 2.19 µM | TGI [6]: 7.35 µM | GI50 [7]: 0.657 µM | TGI [7]: 5.19 µM | GI50 [8]: 1.55 µM | TGI [8]: 5.95 µM

O=C1/C(=C/c2ccccc2Br)COc2ccc(O)c(O)c21
GI50 [1]: 1.03 µM | TGI [1]: 2.32 µM | GI50 [2]: 0.557 µM | TGI [2]: 1.83 µM | GI50 [3]: 0.196 µM | TGI [3]: 0.494 µM | GI50 [4]: 0.261 µM | TGI [4]: 0.682 µM | GI50 [5]: 2.13 µM | TGI [5]: 5.64 µM | GI50 [6]: 1.53 µM | TGI [6]: 5.17 µM | GI50 [7]: 2.29 µM | TGI [7]: 6.54 µM | GI50 [8]: 2.01 µM | TGI [8]: 4.09 µM

CCC(c1ccc(OC)cc1)C(CC)c1ccc(O)c(CN2CCCC2)c1 (stereo not drawn)
GI50 [1]: 2.04 µM | TGI [1]: 4.74 µM | GI50 [2]: 6.15 µM | TGI [2]: 19.5 µM | GI50 [3]: 1.66 µM | TGI [3]: 3.79 µM | GI50 [4]: 2.24 µM | TGI [4]: 6.28 µM | GI50 [5]: 3.41 µM | TGI [5]: 11.6 µM | GI50 [6]: 2.1 µM | TGI [6]: 4.7 µM | GI50 [7]: 3.46 µM | TGI [7]: 13.4 µM | GI50 [8]: 2.35 µM | TGI [8]: 10.8 µM

CC1Cc2c(N)nc(N3CCOCC3)nc2NC1=O (stereo not drawn)
TGI [1]: > 100 µM | TGI [2]: > 100 µM | TGI [11]: > 100 µM | TGI [9]: > 100 µM | TGI [3]: > 100 µM | TGI [4]: > 100 µM | TGI [5]: > 100 µM | TGI [6]: > 100 µM | TGI [7]: > 100 µM | TGI [8]: > 100 µM

CN(C1=NS(=O)(=O)N=C(N(C)c2ccccc2)O1)c1ccccc1
TGI [1]: 27.6 µM | TGI [2]: 51.6 µM | TGI [3]: 46.2 µM | TGI [4]: 43.9 µM | TGI [5]: 47.7 µM | TGI [6]: 57.4 µM | TGI [7]: 41.9 µM | TGI [8]: 80.2 µM

CC(C)(C)N1CC(OC(N)=O)C1
GI50 [1]: > 100 µM | TGI [1]: > 100 µM | GI50 [2]: > 100 µM | TGI [2]: > 100 µM | GI50 [3]: > 100 µM | TGI [3]: > 100 µM | GI50 [4]: > 100 µM | TGI [4]: > 100 µM | GI50 [5]: > 100 µM | TGI [5]: > 100 µM | GI50 [6]: > 100 µM | TGI [6]: > 100 µM | GI50 [7]: > 100 µM | TGI [7]: > 100 µM | GI50 [8]: > 100 µM | TGI [8]: > 100 µM
